# In patent publication US8329703B2, “Pyrazole compounds” (XTL Biopharmaceuticals Ltd., priority 2005, dated 2012):
# Like-named read-outs stand apart in the source and are kept apart here.
# Experiments:
# Huh-Luc-Neo cells = experiment: Cell Titer-Glo Cell Viability Assay; format: cell-based, human; settings: for Toxicity % Inhibition at 50 μM (2 doses): inhibition of cell viability at 50 μM, conditions identical to HCV Replicon RNA Assay; for Toxicity % Inhibition at 100 μM (1 dose): inhibition of cell viability at 100 μM, conditions identical to HCV Replicon Luciferase Assay (48 h)
# Description: (§1) Day 2, Reagent Preparation and Luciferase Assay: The Bright-Glo Luciferase Assay Buffer (Promega) is thawed and equilibrated to room temperature prior to use. The lyophilized Bright-Glo Luciferase Assay Substrate is equilibrated to room temperature prior to use. 10 ml of Bright-Glo Luciferase Assay Buffer is transferred to 1 vial of Bright-Glo Luciferase Assay Substrate bottle and mixed by gently with a Vortex. 100 ul of Bright-Glo Luciferase Assay reagent (Bright-Glo Luciferase Assay Buffer+Bright-Glo Luciferase Assay Substrate Mixture) is added to each well. The well contents are mixed for 5 min. on an orbital shaker at room temperature to induce cell lysis and the luminescence is then measured using a luminometer. The data is analyzed and IC50s are determined using GraphPad Prism 4 software. Hits validated in the Replicon Luciferase assay have IC50s<8.0 μM and show <30% inhibition of Cell Viability at a compound concentration of 100 μM (Cell Titer Glow Assay, cell viability assay conditions identical to HCV Replicon Luciferase Assay conditions).
# (§2) Day 3, Quantitative PCR Based Measurement of HCV RNA (Taqman Assay): Quantitative PCR analysis to measure HCV RNA expression from cDNA synthesized on Day 2 is performed using the ABI 9700 HT Sequence Detection System (Applied Biosystems) as previously described (Lohman et al, Science 285, 110-113, 1999). The data is analyzed and IC50s are determined using GraphPad Prism 4 software. Hits validated in the Replicon RNA Assay have IC50s<8.0 μM and show <30% inhibition of Cell Viability at a compound concentration of 50 μM (Cell Titer Glow Assay, cell viability assay conditions identical to HCV Replicon RNA Assay conditions).
# Day 0, Cell Seeding and Compound Treatment: Huh-Luc-Neo Cells are seeded at 25,000/well in an opaque-walled 96 plate with Growth Medium (DMEM phenol red free+PS+2 mM glutamine; 100 ul/well).
# Day 2, Reagent Preparation and Assay: The CellTiter-Glo Buffer is thawed and equilibrated to room temperature prior to use. The lyophilized CellTiter-Glo Substrate is equilibrated to room temperature prior to use. 10 ml of CellTiter-Glo Buffer is transferred to 1 vial of CellTiter-Glo Substrate and mixed by gently with a Vortex. 100 μl of CellTiter-Glo Assay reagent (CellTiter-Glo Buffer+CellTiter-Glo Substrate Mixture) is added to each well. The well contents are mixed for 5 min. on an orbital shaker at room temperature to induce cell lysis and the luminescence is then measured using a luminometer.
# [1] = tested on: HCV RNA (HCV Replicon) in Huh-Luc-Neo cells; experiment: HCV Replicon RNA Assay (Taqman quantitative PCR); format: cell-based; settings: Hepatitis C virus, 48 h, 2 compound treatments over 48 h, no unit printed in table (b307 gives IC50s in μM)
# Description: (§3) The identification of inhibitors of HCV replication and/or proliferation has been facilitated by the development of a cell based system to study HCV replication and assay for HCV inhibitors. Inhibition of HCV replication may be performed using the HCV Replicon Assay developed in the laboratories of Bartenschlager (Lohman et al, Science 285, 110-113, 1999) and Rice (Blight et al, Science 290, 1972-1974, 2000). The assay is performed using the Huh-Luc-Neo cell line (Lohman et al, Science 285, 110-113, 1999). Huh-Luc-Neo cells are a human hepatoma cell line (Huh-7) stably expressing a bi-cistronic subgenomic replicon containing the HCV IRES in which the […] of HCV had been deleted and replaced by a construct containing sequences coding for the firefly luciferase reporter gene, the neomycin selectable marker and the EMCV IRES to direct expression of a truncated HCV genome expressing the […] NS3, NS4A, NS4B, NS5A, and NS5B. HCV targets through which inhibitors could act to inhibit replication include the NS3 protease, the helicase/ATPase, NS5A, the NS5B-RNA dependent RNA polymerase, and the HCV IRES.
# (§4) Expression of HCV IRES driven luciferase reporter activity and HCV RNA is measured to obtain indirect and direct measures of replication of HCV RNA respectively. Inhibitors of HCV replication and/or proliferation are determined by initially identifying molecules that inhibit expression of the HCV IRES driven luciferase reporter in this HCV Replicon Luciferase Assay. Cell viability assays and control cell based luciferase assays are then run on hits identified in the HCV Replicon Luciferase Assay to eliminate cytoxic compounds and non-specific compounds which act by inhibiting the luciferase enzyme.
# (§5) Day 0, Cell Seeding and Compound Treatment: Huh-Luc-Neo Cells are seeded at 25,000/well in an opaque-walled 96 plate with Growth Medium (DMEM phenol red free+PS+2 mM glutamine; 100 μl/well). The compounds to be tested are added to the experimental wells (10 μl/well at 10× assay concentration) and the cells are then incubated (5% CO2, 37° C.).
# Day 1, Media Change and Compound Treatment: 24 hours after the initial compound treatment the cell culture media is aspirated from the wells and fresh Growth Medium is added (DMEM phenol red free+PS+2 mM glutamine; 100 μl/well). The compounds to be tested are then added to the appropriate experimental wells (10 μl/well at 10× assay concentration) and the cells are then incubated (5% CO2, 37° C.) for an additional 24 hrs.
# Day 2, RNA Isolation and cDNA Synthesis: The cells are washed with 1× Phosphate Buffered Saline (PBS) once.
# as §2
# [2] = tested on: HCV Replicon (HCV IRES driven luciferase reporter) in Huh-Luc-Neo cells; experiment: HCV Replicon Luciferase Assay; format: cell-based; settings: Hepatitis C virus, 48 h
# Description: as §3, §4
# as §5, with “C.) for 48 h.” for “C.).”
# as §1
# [3] = Huh-Luc-Neo cells, no unit printed in table (b301 gives IC50s in μM), read-out: Luciferase IC50
# [4] = read-out: Luciferase IC50, Huh-Luc-Neo cells, 48 h, no unit printed in table (b301 gives IC50s in μM)
Structure (SMILES),Toxicity % Inhibition at 50 μM (2 doses) (Huh-Luc-Neo cells) [%],Toxicity % Inhibition at 100 μM (1 dose) (Huh-Luc-Neo cells) [%],IC50 [1] [µM],"IC50 [2, 3] [µM]",IC50 ([2]; read-out: Luciferase IC50) [µM],"IC50 [2, 4] [µM]"
Cn1cc(C#CC(C)(C)C)c(-c2cc(C#Cc3ccc(Cl)cc3)ccc2O)n1 [VQ_34394],24.5,31.8,1.07,4.8,,
Cn1cc(C#CC(C)(C)C)c(-c2cc(C#CCC3CCCCC3)ccc2O)n1 [VQ_34395],23.6,45.4,0.68,3.7,,
Cn1cc(C#CC2CC2)c(-c2cc(Br)ccc2O)n1 [VQ_34432],8.2,45.5,0.82,11.5,,
Cn1cc(C#CC(C)(C)C)c(-c2cc(-c3cccc(Cl)c3)ccc2O)n1 [VQ_35543],8.2,25.3,2.16,10.1,,
Cn1cc(C#CC(C)(C)C)c(-c2cc(NC(=O)c3ccc(Cl)c(Cl)c3)ccc2O)n1 [VQ_35556],13.7,28.8,0.99,9.3,,
Cn1cc(C#CC(C)(C)C)c(-c2cc(NC(=O)c3cccc(Cl)c3)ccc2O)n1 [VQ_35559],15.8,24.2,1.98,9.5,,
CC(=O)c1ccc(N2CCN(C(=O)c3c(C#CC(C)(C)C)c(-c4cc(Cl)ccc4O)nn3C)CC2)cc1 [VQ_36649],12.1,7.3,0.4,9.7,,
C=CCNc1ccc([N+](=O)[O-])cc1-c1nn(C)cc1C#CC(C)(C)C [VQ_36658],38.8,21.8,0.4,0.04,,
Cn1cc(C#CC(C)(C)C)c(-c2cc([N+](=O)[O-])ccc2NCc2cc(F)cc(F)c2)n1 [VQ_36659],21.9,13.0,0.3,,0.04,
Cn1cc(C#CC(C)(C)C)c(-c2cc([N+](=O)[O-])ccc2NCC(C)(C)CNc2ccc([N+](=O)[O-])cc2-c2nn(C)cc2C#CC(C)(C)C)n1 [VQ_36660],15.8,15.3,0.59,,,10.4
Cn1cc(C#CC(C)(C)C)c(-c2cc([N+](=O)[O-])ccc2NC2CCCCC2)n1 [VQ_36661],14.4,9.5,0.55,0.63,,
Cn1cc(C#CC(C)(C)C)c(-c2cc([N+](=O)[O-])ccc2NCc2c(F)cccc2F)n1 [VQ_36665],25.6,12.8,0.72,0.03,,
CC(Nc1ccc([N+](=O)[O-])cc1-c1nn(C)cc1C#CC(C)(C)C)c1ccccc1 (stereo not shown) [VQ_36666],19.0,12.9,0.38,0.35,,
Cc1cnc(Nc2ccc([N+](=O)[O-])cc2-c2nn(C)cc2C#CC(C)(C)C)s1 [VQ_36669],26.7,23.2,0.9,0.01,,
Cn1cc(C#CC(C)(C)C)c(-c2cc([N+](=O)[O-])ccc2NCCCNc2ccc([N+](=O)[O-])cc2-c2nn(C)cc2C#CC(C)(C)C)n1 [VQ_36673],19.7,15.9,0.42,,,2.09
Cn1cc(-c2ccc(O)c(-c3nn(C)cc3C#CC(C)(C)C)c2)cn1 [VQ_95538],6.1,24.3,1.35,9.8,,
